Source: ChEMBL document CHEMBL1201862, “PubChem BioAssay data set” (2004)
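Growth conditions: 96-well plates. Treatment: test compound, 48 hours, 5 concentrations. Analysis: linear interpolation between bracketing concentrations; unreached endpoints set to highest concentration. GI50 is the concentration that inhibits growth by half.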 The source made the active and inactive calls. Cut-off read from the data, not from the text of the source: active = GI50 up to about 1.1 µM and inactive = higher.

Columns and labels:
Assay in all cases: NCI-60 cell line screen, 48 h
SW-620 = test system: SW-620
OVCAR-3 = test system: OVCAR-3
OVCAR-5 = test system: OVCAR-5
SF-268 = test system: SF-268
SNB-75 = test system: SNB-75
HCC 2998 = test system: HCC 2998
NCI/ADR-RES = test system: NCI/ADR-RES
IGROV-1 = test system: IGROV-1
DU-145 = test system: DU-145
Malme-3M = test system: Malme-3M
BT-549 = test system: BT-549
Hs-578T = test system: Hs-578T
UO-31 = test system: UO-31
MCF7 = test system: MCF7
HT-29 = test system: HT-29
HCT-116 = test system: HCT-116
HOP-92 = test system: HOP-92
SK-OV-3 = test system: SK-OV-3
M14 = test system: M14
SN12C = test system: SN12C
K562 = test system: K562
SF-295 = test system: SF-295
MDA-N = test system: MDA-N
NCI-H226 = test system: NCI-H226
SK-MEL-2 = test system: SK-MEL-2
NCI-H522 = test system: NCI-H522
MOLT-4 = test system: MOLT-4
SK-MEL-5 = test system: SK-MEL-5
SK-MEL-28 = test system: SK-MEL-28
786-0 = test system: 786-0
UACC-62 = test system: UACC-62
HCT-15 = test system: HCT-15
RPMI-8226 = test system: RPMI-8226
UACC-257 = test system: UACC-257
CCRF-CEM = test system: CCRF-CEM
MDA-MB-435 = test system: MDA-MB-435
RXF 393 = test system: RXF 393
A498 = test system: A498
NCI-H460 = test system: NCI-H460
COLO 205 = test system: COLO 205
OVCAR-8 = test system: OVCAR-8
SNB-19 = test system: SNB-19
EKVX = test system: EKVX
NCI-H23 = test system: NCI-H23
ACHN = test system: ACHN
HL-60 = test system: HL-60
HOP-62 = test system: HOP-62
A549 = test system: A549
CAKI-1 = test system: CAKI-1
SF-539 = test system: SF-539
KM12 = test system: KM12
OVCAR-4 = test system: OVCAR-4
PC-3 = test system: PC-3
T47D = test system: T47D
SR = test system: SR
LOX IMVI = test system: LOX IMVI

SMILES: COc1ccc(C)cc1NC(=S)N/N=C/c1ccco1
- GI50 (SW-620): 36.5 µM (inactive)
- GI50 (OVCAR-3): 49.2 µM (inactive)
- GI50 (OVCAR-5): > 100 µM (inactive)
- GI50 (SF-268): 56.1 µM (inactive)
- GI50 (SNB-75): 39.9 µM (inactive)
- GI50 (HCC 2998): 36.5 µM (inactive)
- GI50 (NCI/ADR-RES): 31.4 µM (inactive)
- GI50 (IGROV-1): 35.8 µM (inactive)
- GI50 (DU-145): > 100 µM (inactive)
- GI50 (Malme-3M): 52.2 µM (inactive)
- GI50 (BT-549): 53.8 µM (inactive)
- GI50 (Hs-578T): 66.7 µM (inactive)
- GI50 (UO-31): 79.3 µM (inactive)
- GI50 (MCF7): 4.94 µM (inactive)
- GI50 (HT-29): 29 µM (inactive)
- GI50 (HCT-116): 36.2 µM (inactive)
- GI50 (HOP-92): 64.6 µM (inactive)
- GI50 (SK-OV-3): > 100 µM (inactive)
- GI50 (M14): 34.6 µM (inactive)
- GI50 (SN12C): 45.3 µM (inactive)
- GI50 (K562): 25.9 µM (inactive)
- GI50 (SF-295): 40.2 µM (inactive)
- GI50 (MDA-N): 18.6 µM (inactive)
- GI50 (NCI-H226): 25.9 µM (inactive)
- GI50 (SK-MEL-2): 16.6 µM (inactive)
- GI50 (NCI-H522): 22.8 µM (inactive)
- GI50 (MOLT-4): 31.7 µM (inactive)
- GI50 (SK-MEL-5): 14.7 µM (inactive)
- GI50 (SK-MEL-28): 60.8 µM (inactive)
- GI50 (786-0): 38 µM (inactive)
- GI50 (UACC-62): 46.8 µM (inactive)
- GI50 (HCT-15): 34.2 µM
- GI50 (RPMI-8226): 21.4 µM (inactive)
- GI50 (UACC-257): 30.9 µM (inactive)
- GI50 (CCRF-CEM): 29 µM (inactive)
- GI50 (MDA-MB-435): 16 µM (inactive)
- GI50 (RXF 393): 52.1 µM (inactive)
- GI50 (A498): 57.3 µM (inactive)
- GI50 (NCI-H460): 34.1 µM (inactive)
- GI50 (COLO 205): 21.8 µM (inactive)
- GI50 (OVCAR-8): 37.3 µM (inactive)
- GI50 (SNB-19): 99.3 µM (inactive)
- GI50 (EKVX): 16.7 µM (inactive)
- GI50 (NCI-H23): 53.2 µM (inactive)
- GI50 (ACHN): > 100 µM (inactive)
- GI50 (HL-60): 22 µM (inactive)
- GI50 (HOP-62): 48.3 µM (inactive)
- GI50 (A549): 48.4 µM (inactive)
- GI50 (CAKI-1): 55.2 µM (inactive)
- GI50 (SF-539): 27.6 µM (inactive)
- GI50 (KM12): 18.9 µM (inactive)
- GI50 (OVCAR-4): 37.4 µM (inactive)
- GI50 (PC-3): 43.4 µM (inactive)
- GI50 (T47D): 25.4 µM (inactive)
- GI50 (SR): 11.3 µM (inactive)
- GI50 (LOX IMVI): 43.1 µM (inactive)

SMILES: O=C(N/N=C/c1ccc(Cl)cc1)c1c(Cl)c(Cl)c(Cl)c(Cl)c1-c1nc2ccccc2[nH]1
- GI50 (SW-620): > 100 µM (inactive)
- GI50 (OVCAR-3): > 100 µM (inactive)
- GI50 (OVCAR-5): > 100 µM (inactive)
- GI50 (SF-268): > 100 µM (inactive)
- GI50 (SNB-75): > 100 µM (inactive)
- GI50 (HCC 2998): 5.5 µM (inactive)
- GI50 (NCI/ADR-RES): > 100 µM (inactive)
- GI50 (IGROV-1): 59.3 µM (inactive)
- GI50 (DU-145): > 100 µM (inactive)
- GI50 (Malme-3M): > 100 µM (inactive)
- GI50 (BT-549): > 100 µM (inactive)
- GI50 (Hs-578T): 1.83 µM (inactive)
- GI50 (UO-31): 86.9 µM (inactive)
- GI50 (MCF7): 16.2 µM (inactive)
- GI50 (HT-29): 47.3 µM (inactive)
- GI50 (HCT-116): 40.3 µM (inactive)
- GI50 (HOP-92): 23.6 µM (inactive)
- GI50 (SK-OV-3): 0.0454 µM (active)
- GI50 (M14): 86.5 µM (inactive)
- GI50 (SN12C): > 100 µM (inactive)
- GI50 (K562): 47.9 µM (inactive)
- GI50 (SF-295): 0.0405 µM (active)
- GI50 (MDA-N): 56.8 µM (inactive)
- GI50 (NCI-H226): 0.224 µM (active)
- GI50 (SK-MEL-2): 93.1 µM (inactive)
- GI50 (NCI-H522): 55.7 µM (inactive)
- GI50 (MOLT-4): 40.2 µM (inactive)
- GI50 (SK-MEL-5): 49 µM (inactive)
- GI50 (SK-MEL-28): > 100 µM (inactive)
- GI50 (786-0): 28.6 µM (inactive)
- GI50 (UACC-62): 80.9 µM (inactive)
- GI50 (HCT-15): 64.1 µM
- GI50 (RPMI-8226): 22.2 µM (inactive)
- GI50 (CCRF-CEM): 50.4 µM (inactive)
- GI50 (MDA-MB-435): 74.3 µM (inactive)
- GI50 (RXF 393): 33 µM (inactive)
- GI50 (A498): 98.2 µM (inactive)
- GI50 (NCI-H460): 30 µM (inactive)
- GI50 (COLO 205): > 100 µM (inactive)
- GI50 (SNB-19): > 100 µM (inactive)
- GI50 (EKVX): 16.9 µM (inactive)
- GI50 (NCI-H23): > 100 µM (inactive)
- GI50 (ACHN): 64.6 µM (inactive)
- GI50 (HL-60): > 100 µM (inactive)
- GI50 (HOP-62): 0.0452 µM (active)
- GI50 (A549): > 100 µM (inactive)
- GI50 (CAKI-1): 46.2 µM (inactive)
- GI50 (SF-539): > 100 µM (inactive)
- GI50 (KM12): 8.36 µM (inactive)
- GI50 (PC-3): 92.5 µM (inactive)
- GI50 (T47D): 4.47 µM (inactive)
- GI50 (SR): 59.2 µM (inactive)
- GI50 (LOX IMVI): 41.1 µM (inactive)
